Values quoted from earlier work in patent publication US20230270707A1, “ORAL LIQUID PHARMACEUTICAL COMPOSITIONS OF ISOTRETINOIN” (IDRS Labs Private Limited, priority 2020, published 2023).
Read-outs that look alike come from different tables or passages of the source.

Key:
[1] = target plasma level of isotretinoin ≥2 μM

solubility in water: practically insoluble in water | patients who achieved the target Cmax ([1]; drug extracted from capsules and mixed with food or given via nasogastric tube): 55% | patients who achieved the target Cmax ([1]; patients able to swallow the capsules): 92.5%
SMILES: CC1=C(/C=C/C(C)=C/C=C/C(C)=C\C(=O)O)C(C)(C)CCC1 [isotretinoin, 13-cis retinoic acid]
